The source of these data is patent publication US10143198B2, “Use of propyl propane thiosulfinate and propyl propane thiosulfonate for the prevention and reduction of parasites in aquatic animals” (Investfood, LLC, priority 2013, dated 2018).

One assay has as its system Icthyobodo necator. The experiment in a line: oral treatment of Ichthyobodosis in rainbow trout, PTSO administered into feed. Format: in vivo. The settings on record: for % infestation High / % infestation Low / % infestation minimal / % infestation Moderate / % infestation zero: 24 hours after end of assay; for % infestation High: High = more than 50 individuals per microscope field; for % infestation Low: Low = more than 1 individual, less than 10 per field; for % infestation minimal: Minimal = only 1 individual detected; for % infestation Moderate: Moderate = 10 to 50 per field; for % infestation zero: Zero = not detected. As for the experimental part:
In this example, a study of oral treatments of Ichthyobodosis in rainbow trout with different concentrations of Propyl propane thiosulphonate (PTSO) administered into feed was conducted.
Rainbow trout Oncornynchus mykiss were obtained from a local fish farm and acclimatized for at least 10 days before assay in 100 l tanks with aeration in closed systems of water (15±2° C., pH 7-7.5). The natural light-dark cycle was simulated (12 h light: 12 h dark). Fish were fed twice per day with a commercial feed (EFICO, Biomar, Spain). Parasite-free fish were experimentally infested by holding the parasite-free fish 25 days in a 100 l tank that also contained fish showing high-intensity infestation (20 uninfected fish to 10 infected fish).
Fish were anaesthetized by immersion in bath with 100 ppm of Tricaine methanesulfonate until respiration became weak. A mucus sample was then taken by gently scraping the body surface after examination of a sample area of 24×32 mm. The sample was mixed with 30 μl of distilled water on a slide, cover-slipped and examined to optic microscopy (400×).
Each treatment was assayed in 20 infected fish maintained in 100 L tanks with aeration in closed systems of water. The fish received feed containing three different treatments. The first group received a diet with 100 ppm of Propyl propane thiosulphonate (PTSO), the second received a diet supplemented with 300 ppm of PTSO, and the third received a diet with 300 ppm of metronidazole. All treatments were applied during a 10 day period. In all cases, feed was supplied at 2% of total body weight per day. Simultaneously, a positive control assay (also on 20 infected fish treated identically, but without any PTSO) and negative control assay (with 20 uninfected animals) were performed. Tanks conditions were identical to those during the acclimatization period.
Throughout the assay period the fish were monitored regularly to ensure that the fish were eating the food, and to check for signs of toxicity.
Of note, infestation intensity was based on a 5-point scale, as follows: Zero equals Ichthyobodo necator not being detected in the sample; Minimal equals only 1 individual of I. necator being detected in the sample; Low equals more than 1 individual of parasite being detected in the sample, the average number per microscope field being less than 10; Moderate equals an average number of individuals per microscope field of 10 to 50; High equals an average number of individuals per microscope field of more than 50.

For assay [1], the system named is L3 larvae of Anisakis type I. The settings on record: 200, 300 and 500 ppm, in vitro, 36° C. The source says:
(§1) The objective of example 3 was to examine the activity of propyl propane thiosulphonate (PTSO) and propyl propane thiosulfinate (PTS) against L3 larvae of type I Anisakis and Hysterotylacium aduncum to explore the possible use of these compounds for prophylaxis treatments.
(§2) L3 of Anisakis type I and Hysterotylacium aduncum were collected by dissecting the fish Micromesistius poutassou (blue whiting) and Trachurus trachurus (mackerel) fished in the Cantabric sea, and selecting only larvae with a length greater than (>) 2.0 cm in the case of Anisakis, and greater than 0.8 cm for Hysterotylacium.
(§3) Larvae were axenised in antibiotic solution (Iglesias et al., 1997), introduced into polystyrene plate wells with 2 ml of sterile solution of 0.9% NaCl and the different concentrations of PTS alone, PTSO alone, and both PTS and PTSO (75, 200, 300 and 500 ppm) and then incubated at 36° C. in a 5% CO2 atmosphere. As controls, larvae were assayed without test compound under identical experimental conditions, and using only the solvent DMSO 1% (Dimethyl sulfoxide). Larvae were examined under stereoscopic microscope at 4, 8, 24, and 48 hours to test the biocidal effect of the compounds. Larvae with no mobility at all were considered dead. Each dilution was tested three times on larvae from fish captured on different days.

Assay [2] deals with L3 larvae of Hysterotylacium aduncum. The settings on record: 75 ppm, in vitro, 36° C.
Description: as §1, §2, §3

Consider `Cc1ncc([N+](=O)[O-])n1CCO` [Metronidazole, metronidazole, reference compound], for which, in the assay on Icthyobodo necator (300 ppm in feed for 10 days), the “% infestation High” value amounted to 15%, the “% infestation Low” value was determined as 7%, the “% infestation minimal” value was 12% and the “% infestation Moderate” value was determined as 20%. For the same molecule, the “% infestation zero” value with Icthyobodo necator (300 ppm in feed for 10 days) is listed as 46%.

For `CCCS[S+]([O-])CCC` (centres unmarked) [PTS, propyl propane thiosulfinate], the “anti-parasitic activity (mortality)” value in assay [1] and in assay [2] was “significant anti-parasitic activity” each time.

Consider `CCCSS(=O)(=O)CCC` [PTSO, propyl propane thiosulfonate], for which, in the assay with Icthyobodo necator (100 ppm in feed for 10 days), the “% infestation High” value came out at 35%, the “% infestation Low” value was 18%, the “% infestation minimal” value was 12% and the “% infestation Moderate” value turned out to be 30%. In the assay with Icthyobodo necator (100 ppm in feed for 10 days), the “% infestation zero” value came out at 5%. In the assay on Icthyobodo necator (300 ppm in feed for 10 days), the “% infestation High” value is given as 25%, the “% infestation Low” value is reported as 8%, the “% infestation minimal” value is given as 5% and the “% infestation Moderate” value is reported as 7%. Moreover, the “% infestation zero” value with Icthyobodo necator (300 ppm in feed for 10 days) was 55%. In addition, the “antiparasitic activity, infestation intensity” value with Icthyobodo necator (oral in feed) was “significant reduction of infestation intensity”. Moreover, the “anti-parasitic activity (mortality)” value in assay [1] is “significant anti-parasitic activity”. For the same molecule, the “anti-parasitic activity (mortality)” value in assay [2] was “significant anti-parasitic activity”.
